Measurements from patent US20240374590A1, “COMPOSITIONS AND METHODS FOR TREATING CANCER” (A2A PHARMACEUTICALS, INC., priority 2021, published 2024).

How the values were obtained:
[1] = system: HCT-116 human colon carcinoma cell line; assay: Cell viability assay (SRB) in HCT-116; assay type: cell-based; conditions: 72 hours after treatment, read-out: HCT116 IC50
Procedure, shortened: (§1)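 JIMT-1 (3×10^3 cells/well) and HCT-116 (4×10^3 cells/well) cells were seeded and treated with inhibitors at several concentrations 24 h later. Viability was read by sulforhodamine B staining 72 h after treatment. JIMT-1 was grown in DMEM and HCT-116 in McCoy's 5A, both with FBS.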

[2] = system: JIMT-1 human breast cancer cell line; assay: Cell viability assay (SRB) in JIMT-1; assay type: cell-based; conditions: 72 hours after treatment, read-out: JIMT1 IC50
Procedure, shortened: as §1

CT-26 xenografts = assay: CT-26 mouse colon xenograft model; assay type: in vivo; conditions: CT-26 xenograft, female Balb/c mice; 15, 25, 50 mpk QD, 5 mpk IV BIW, 5 mpk IP QD
Experimental: Compound 129b was also tested in CT-26 mouse colon xenograft models. For CT-26 xenografts 5×10^5 CT-26 cells in 100 μL was injected in the right flank of six-to-eight-week-old female Balb/c mice. When the tumor volume reached mean of ˜100 mm^3, mice were randomized in a group of 5 and treatment was initiated vehicle, 15 mpk QD, 25 mpk QD, 50 mpk QD, 5 mpk IV BIW, and 5 mpk IP QD of Compound 129b.

RKO xenograft = assay: RKO colon cancer xenograft tumor growth in nude mice; assay type: in vivo, mouse; conditions: female athymic nude mice
Experimental: Six-to-eight-week-old female athymic nude mice were housed with a temperature-controlled and 12-hour light/12-hour dark cycle environment. For in vivo colon cancer tumor growth, 1×10^6 RKO cells were prepared in 100 μL of DMEM and injected into right flank of female nude mice. Mouse weight and tumor volume were measured twice a week. Tumor volumes were calculated as length×width^2×0.5. Once the tumor volume had reached about 100 mm^3, xenografts were randomized into groups (5 mice per group). Animals were treated with vehicle and Compound 129b. The formulation for vehicle and Compound 129b was 50% PEG400 and 20% Cremophor RH40 final (50% of 40% Cremophor) in Acetate buffer, PH=4. The mouse were sacrificed after 4 weeks or if the tumors reached a predefined tumor volume cut-off of 2500 mm^3. […] For instance, at the highest does, a TGI of at least 80% was observed (FIG. 1). PGP-71

Compound	IC50 [1] [nM]	IC50 [2] [nM]	tumor growth inhibition or regression (in words) (CT-26 xenografts)	tumor growth inhibition (in words) (RKO xenograft; 100 mg/kg PO QD/BID/TID)	TGI (RKO xenograft; highest dose (100 mg/kg PO TID, 28 days))
COc1ccc(-c2cc(Nc3ccnc(N4C[C@@H](C)O[C@@H](C)C4)n3)[nH]n2)c(F)c1 [Compound 129b, 2-((2R,6S)-2,6-dimethylmorpholino)-N-(3-(2-fluoro-4-methoxyphenyl)-1H-pyrazol-5-yl)pyrimidin-4-amine]	34	3	Strong and statistically significant tumor growth inhibition or regression	strong tumor growth inhibition	at least 80%
FC(F)Oc1ccc(-c2cc(Nc3ccnc(N4CCCOCC4)n3)[nH]n2)cc1 [Compound 255, N-(3-(4-(difluoromethoxy)phenyl)-1H-pyrazol-5-yl)-2-(1,4-oxazepan-4-yl)pyrimidin-4-amine]	312	279	–	–	–
FC(F)Oc1ccc(-c2cc(Nc3ccnc(N4C5CCC4COC5)n3)[nH]n2)cc1 [Compound 259, 2-(3-oxa-8-azabicyclo[3.2.1]octan-8-yl)-N-(3-(4-(difluoromethoxy)phenyl)-1H-pyrazol-5-yl)pyrimidin-4-amine]	≥ 10000	65	–	–	–
FC(F)Oc1ccc(-c2cc(Nc3ccnc(N4CC5CCC(C4)O5)n3)[nH]n2)cc1 [Compound 260, 2-(8-oxa-3-azabicyclo[3.2.1]octan-3-yl)-N-(3-(4-(difluoromethoxy)phenyl)-1H-pyrazol-5-yl)pyrimidin-4-amine]	8980	648	–	–	–
FC(F)Oc1ccc(-c2cc(Nc3ccnc(N4C[C@@H]5C[C@H]4CO5)n3)[nH]n2)cc1 [Compound 261, 2-((1S,4S)-2-oxa-5-azabicyclo[2.2.1]heptan-5-yl)-N-(3-(4-(difluoromethoxy)phenyl)-1H-pyrazol-5-yl)pyrimidin-4-amine]	7200	400	–	–	–
FC(F)Oc1ccc(-c2cc(Nc3ccnc(N4C[C@H]5C[C@@H]4CO5)n3)[nH]n2)cc1 [Compound 262, 2-((1R,4R)-2-oxa-5-azabicyclo[2.2.1]heptan-5-yl)-N-(3-(4-(difluoromethoxy)phenyl)-1H-pyrazol-5-yl)pyrimidin-4-amine]	≥ 10000	329	–	–	–
C[C@H]1COCCN1c1nccc(Nc2cc(-c3ccc(OC(F)F)cc3)n[nH]2)n1 [Compound 263, (S)-N-(3-(4-(difluoromethoxy)phenyl)-1H-pyrazol-5-yl)-2-(3-methylmorpholino)pyrimidin-4-amine]	79	30	–	–	–
C[C@@H]1COCCN1c1nccc(Nc2cc(-c3ccc(OC(F)F)cc3)n[nH]2)n1 [Compound 264, (R)-N-(3-(4-(difluoromethoxy)phenyl)-1H-pyrazol-5-yl)-2-(3-methylmorpholino)pyrimidin-4-amine]	302	127	–	–	–
COc1ccc(-c2cc(N(C)c3ccnc(N4C[C@@H](C)O[C@@H](C)C4)n3)[nH]n2)c(F)c1 [Compound 275, 2-((2R,6S)-2,6-dimethylmorpholino)-N-(3-(2-fluoro-4-methoxyphenyl)-1H-pyrazol-5-yl)-N-methylpyrimidin-4-amine]	46	13	–	–	–
C[C@@H]1CN(c2nccc(N(C)c3cc(-c4ccc(OCF)cc4)n[nH]3)n2)C[C@H](C)O1 [Compound 277, 2-((2R,6S)-2,6-dimethylmorpholino)-N-(3-(4-(fluoromethoxy)phenyl)-1H-pyrazol-5-yl)-N-methylpyrimidin-4-amine]	269	204	–	–	–
COc1ccc(-c2cc(Nc3nc(N4C[C@@H](C)O[C@@H](C)C4)ncc3Cl)[nH]n2)c(F)c1 [Compound 281, 5-chloro-2-((2R,6S)-2,6-dimethylmorpholino)-N-(3-(2-fluoro-4-methoxyphenyl)-1H-pyrazol-5-yl)pyrimidin-4-amine]	436	131	–	–	–
COc1ccc(-c2cc(Nc3nc(N4C[C@@H](C)O[C@@H](C)C4)ncc3F)[nH]n2)c(F)c1 [Compound 282, 2-((2R,6S)-2,6-dimethylmorpholino)-5-fluoro-N-(3-(2-fluoro-4-methoxyphenyl)-1H-pyrazol-5-yl)pyrimidin-4-amine]	46	45	–	–	–
CC1COCC(C)N1c1ncc(F)c(Nc2cc(-c3ccc(OC(F)F)cc3)n[nH]2)n1 (centres unmarked) [Compound 286, N-(3-(4-(difluoromethoxy)phenyl)-1H-pyrazol-5-yl)-2-(3,5-dimethylmorpholino)-5-fluoropyrimidin-4-amine]	5220	1680	–	–	–
C[C@@H]1CN(c2ncc(F)c(Nc3cc(-c4ccc(OC(F)F)cc4)n[nH]3)n2)C[C@H](C)O1 [Compound 287, N-(3-(4-(difluoromethoxy)phenyl)-1H-pyrazol-5-yl)-2-((2R,6S)-2,6-dimethylmorpholino)-5-fluoropyrimidin-4-amine]	91	49	–	–	–
C[C@@H]1CN(c2ncc(Cl)c(Nc3cc(-c4ccc(OC(F)F)cc4)n[nH]3)n2)C[C@H](C)O1 [Compound 288, 5-chloro-N-(3-(4-(difluoromethoxy)phenyl)-1H-pyrazol-5-yl)-2-((2R,6S)-2,6-dimethylmorpholino)pyrimidin-4-amine]	456	443	–	–	–
Fc1cnc(N2CCC2)nc1Nc1cc(-c2ccc(OC(F)F)cc2)n[nH]1 [Compound 289, 2-(azetidin-1-yl)-N-(3-(4-(difluoromethoxy)phenyl)-1H-pyrazol-5-yl)-5-fluoropyrimidin-4-amine]	371	180	–	–	–
CC1CCCN1c1ncc(F)c(Nc2cc(-c3ccc(OC(F)F)cc3)n[nH]2)n1 (centres unmarked) [Compound 290, N-(3-(4-(difluoromethoxy)phenyl)-1H-pyrazol-5-yl)-5-fluoro-2-(2-methylpyrrolidin-1-yl)pyrimidin-4-amine]	337	278	–	–	–
CC1COCCN1c1ncc(F)c(Nc2cc(-c3ccc(OC(F)F)cc3)n[nH]2)n1 (centres unmarked) [Compound 291, N-(3-(4-(difluoromethoxy)phenyl)-1H-pyrazol-5-yl)-5-fluoro-2-(3-methylmorpholino)pyrimidin-4-amine]	1710	777	–	–	–
C[C@@H]1CN(c2ncc(F)c(Nc3cc(-c4ccc(OC(F)F)cc4)n[nH]3)n2)C[C@@H](C)O1 [Compound 292, N-(3-(4-(difluoromethoxy)phenyl)-1H-pyrazol-5-yl)-2-((2R,6R)-2,6-dimethylmorpholino)-5-fluoropyrimidin-4-amine]	996	659	–	–	–
C[C@H]1CN(c2ncc(F)c(Nc3cc(-c4ccc(OC(F)F)cc4)n[nH]3)n2)C[C@H](C)O1 [Compound 293, N-(3-(4-(difluoromethoxy)phenyl)-1H-pyrazol-5-yl)-2-((2S,6S)-2,6-dimethylmorpholino)-5-fluoropyrimidin-4-amine]	332	255	–	–	–
C[C@H]1COCCN1c1ncc(F)c(Nc2cc(-c3ccc(OC(F)F)cc3)n[nH]2)n1 [Compound 294, (S)-N-(3-(4-(difluoromethoxy)phenyl)-1H-pyrazol-5-yl)-5-fluoro-2-(3-methylmorpholino)pyrimidin-4-amine]	1140	636	–	–	–
C[C@@H]1COCCN1c1ncc(F)c(Nc2cc(-c3ccc(OC(F)F)cc3)n[nH]2)n1 [Compound 295, (R)-N-(3-(4-(difluoromethoxy)phenyl)-1H-pyrazol-5-yl)-5-fluoro-2-(3-methylmorpholino)pyrimidin-4-amine]	7510	≥ 10000	–	–	–
C[C@@H]1CN(c2ncnc(Nc3cc(-c4ccc(OC(F)F)cc4)n[nH]3)n2)C[C@H](C)O1 [Compound 310, N-(3-(4-(difluoromethoxy)phenyl)-1H-pyrazol-5-yl)-4-((2R,6S)-2,6-dimethylmorpholino)-1,3,5-triazin-2-amine]	2960	2350	–	–	–
COc1ccc(-c2cc(Nc3ccnc(C4=CCOCC4)n3)[nH]n2)c(F)c1 [Compound 317, 2-(3,6-dihydro-2H-pyran-4-yl)-N-(3-(2-fluoro-4-methoxyphenyl)-1H-pyrazol-5-yl)pyrimidin-4-amine]	24	12	–	–	–
COc1ccc(-c2cc(Nc3ccnc(C4CCOCC4)n3)[nH]n2)c(F)c1 [Compound 318, N-(3-(2-fluoro-4-methoxyphenyl)-1H-pyrazol-5-yl)-2-(tetrahydro-2H-pyran-4-yl)pyrimidin-4-amine]	293	319	–	–	–
